Measurements published in US20190022225A1, “PROTOCOL FOR INCREASING LIFE EXPECTANCY IN A TEST SUBJECT” (Mayo Foundation for Medical Education and Research, priority 2015, published 2019).

Legend:
[1] = test system: senescent mouse embryonic fibroblasts (MEF); test: Cell count survival assay of Nutlin-3a on irradiation-induced senescent MEFs; assay type: cell-based; settings: 10 Gy irradiated MEF; Nutlin-3a 0, 2.5, 10 μM for 9 days
Experimental: Foreskin fibroblast cell lines HCA2 and BJ, lung fibroblast cell line IMR90, and mouse embryonic fibroblasts were seeded in six-well plates and induced to senesce with 10 Gy of ionizing radiation (IR) or a 24 hr treatment with doxorubicin (Doxo). Senescent phenotype was allowed to develop for at least 7 days, at which point a cell count was made to determine the baseline number of cells. Nutlin-3a treatment was then initiated for a period of at least 9 days. Media alone or media with drug as appropriate was refreshed at least every three days. At the end of the assay time period, cells are counted. Each condition was seeded in three plate wells and counted independently. Initial cell count serves as a control to determine the induction of senescence, as compared to the last day count without nutlin treatment. Initial non-senescent cell count serves as a proxy to determine Nutlin-3a toxicity.
Foreskin fibroblast cell lines HCA2 and BJ, lung fibroblast cell line IMR90, and mouse embryonic fibroblasts were exposed to 10 Gy of ionizing radiation (IR) to induce senescence. […] Percent survival was calculated as [cell count on day 9 of Nutlin-3a treatment/initial cell count on first day of Nutlin-3a treatment].

[2] = test system: non-senescent aortic endothelial (Endo Aort) cells and pre-adipocytes (Pread); test: Nutlin-3a toxicity, cell counts of non-senescent endothelial cells and pre-adipocytes; assay type: cell-based; settings: 0, 2.5, 10 μM, 11 days
Experimental: Non-senescent aortic endothelial (Endo Aort) cells and pre-adipocytes (Pread) were also treated with varying concentrations (0, 2.5 μM, and 10 μM) of Nutlin-3a for a period of 11 days to assess Nutlin-3a toxicity, as described above. Cell counts were taken at the start at Day 0 (NS start) and at the end of Nutlin-3a treatment (NS 0). The difference between counts of cells not treated with Nutlin-3a on day 11 (NS 0) and cell counts from NS start reflects the cell growth over the indicated time period. […] Decrease in apparent survival between NS 0 and NS 2.5 and between NS 0 and NS 10 reflects a decrease in cell growth.

[3] = test system: pATM, γH2AX, IkBa, MDM2, p53, p21 in senescent IMR90 cells; test: Immunoblot of DNA damage response proteins in irradiated senescent IMR90 cells treated with Nutlin-3a; assay type: cell-based, human
Experimental: Primary human fibroblast (IMR90) cells were induced to senesce by applying 10 Gy of irradiation. Seven days after irradiation (Day 0), cells were treated with 10 μM Nutlin-3a or vehicle (DMSO) for nine days (Day 9). The drug or vehicle was refreshed every three days. Drug/vehicle was removed at Day 9 and the cells were cultured for an additional six days in media without drug or DMSO, changing media every three days. Cells were collected at Day 0 (non-senescent cells), Day 9, Day 12, and Day 15, and protein extracted and processed for immunoblotting (Western blotting). Two samples were processed at each time point; the results are provided for one sample in FIG. 14.

[4] = test system: 3MR or INK-ATTAC mice exposed to cigarette smoke; test: Cigarette smoke exposure model (COPD), oxygen saturation; assay type: in vivo, mouse; settings: after 2 months of cigarette smoke exposure
Experimental: Six week-old 3MR (n=35) or INK-ATTAC (n=35) mice were chronically exposed to cigarette smoke generated from a Teague TE-10 system, an automatically-controlled cigarette smoking machine that produces a combination of side-stream and mainstream cigarette smoke in a chamber, which is transported to a collecting and mixing chamber where varying amounts of air is mixed with the smoke mixture. […] Mice received a total of 6 hours of cigarette smoke exposure per day, 5 days a week for 6 months. Each lighted cigarette (3R4F research cigarettes containing 10.9 mg of total particulate matter (TPM), 9.4 mg of tar, and 0.726 mg of nicotine, and 11.9 mg carbon monoxide per cigarette [University of Kentucky, Lexington, Ky.]) was puffed for 2 seconds and once every minute for a total of 8 puffs, with the flow rate of 1.05 L/min, to provide a standard puff of 35 cm^3. The smoke machine was adjusted to produce a mixture of side stream smoke (89%) and mainstream smoke (11%) by smoldering 2 cigarettes at one time. The smoke chamber atmosphere was monitored for total suspended particulates (80-120 mg/m^3) and carbon monoxide (350 ppm). Beginning at day 7, (10) INK-ATTAC and (10) 3MR mice were treated with AP20187 (3×per week) or gancyclovir (5 consecutive days of treatment followed by 16 days off drug, repeated until the end of the experiment), respectively. An equal number of mice received the corresponding vehicle. The remaining 30 mice (15 INK-ATTAC and 15 3MR) were evenly split with 5 of each genetically modified strain placed into three different treatment groups. One group (n=10) received Nutlin-3A (25 mg/kg dissolved in 10% DMSO/3% Tween-20 in PBS, treated 14 days consecutively followed by 14 days off drug, repeated until the end of the experiment). One group (n=10) received ABT-263 (Navitoclax) (100 mg/kg dissolved in 15% DMSO/5% Tween-20, treated 7 days consecutively followed by 14 days off drug, repeated until the end of the experiment), and the last group (n=10) received only the vehicle used for ABT-263 (15% DMSO/5% Tween-20), following the same treatment regimen as ABT-263.
After two months of cigarette smoke exposure, lung function was assessed by monitoring oxygen saturation using the MouseSTAT PhysioSuite pulse oximeter (Kent Scientific). Animals were anesthetized with isoflurane (1.5%) and the toe clip was applied. Mice were monitored for 30 seconds and the average peripheral capillary oxygen saturation (SpO2) measurement over this duration was calculated.

[5] = test system: LDLR−/−/3MR double transgenic mice fed a HFD; test: Atherosclerosis model, LDLR-/-/3MR double transgenic mice on HFD, ganciclovir weeks 12-13 and 14-15; assay type: in vivo, mouse; settings: 25 mg/kg ip; versus LDLR−/−/HFD controls
Experimental: The study illustrated in FIG. 43B assessed the extent to which […] based clearance of senescent cells from LDLR^−/− /3MR double transgenic mice improves pre-existing atherogenic disease. LDLR^−/− MR double transgenic mice (10 weeks) and LDLR^−/− single transgenic mice (10 weeks) are fed a high fat diet beginning at Week 0 until Week 12. Gancyclovir is administered to both groups of mice (25 mg/kg intraperitoneally) from weeks 12-13 and weeks 14-15. At week 16, the level of plaque and the number of senescent cells in the plaques are determined.

| SMILES | cell survival of senescent MEF (percent survival) [1] | toxicity to non-senescent aortic endothelial cells and pre-adipocytes (percent growth) [2] | phosphorylation of the kinase ATM (pATM S1981) ([3]; 10 μM, also after drug removal) | level of IkBa ([3]; after drug is removed) | phosphorylation of H2AX (γH2AX) ([3]; after treatment and after drug removal) | levels of MDM2, p53 and p21 protein ([3]; drug present, decreased when drug removed) | SpO2 levels versus untreated controls [4] | % of the aorta covered with plaque [5] | plaque cross-sectional area [5] |
| --- | --- | --- | --- | --- | --- | --- | --- | --- | --- |
| COc1ccc(C2=N[C@@H](c3ccc(Cl)cc3)[C@@H](c3ccc(Cl)cc3)N2C(=O)N2CCNC(=O)C2)c(OC(C)C)c1 [Nutlin-3a] | reduced cell survival | reduces proliferation but is non-toxic | lower | approaches the level of IkBa in non-senescent cells | declining levels of phosphorylation | elevated | statistically significant increases | – | – |
| Nc1nc(O)c2ncn(COC(CO)CO)c2n1 [ganciclovir] | – | – | – | – | – | – | statistically significant increases | reduces the % of the aorta covered with plaque | reduced the plaque cross-sectional area |
